Measured values as given in patent publication US20240050436A1, “COMPOSITIONS AND METHODS USED FOR RETINAL ISCHEMIA OR DIABETES” (The United States GOVERNMENT As Represented By The …, priority 2021, published 2024).
“Also recorded” adds a separate entry of the source.

Columns and labels:
[1] = molecular target: T1, p75^NTR on MSCs (Mus musculus, UniProt Q9Z0W1); assay: MSCs secretome: Western blotting of MSCs conditioned medium (CM); type: cell-based; details: Western blot of CM vs control CM; LM11A-31: 200 nM, 12 h; or p75NTR siRNA silencing
T1 construct: endogenous in cells; host or cells: GFP-labeled mouse mesenchymal stem cells (passages 5-9)
T1 sequence (Q9Z0W1 32-427): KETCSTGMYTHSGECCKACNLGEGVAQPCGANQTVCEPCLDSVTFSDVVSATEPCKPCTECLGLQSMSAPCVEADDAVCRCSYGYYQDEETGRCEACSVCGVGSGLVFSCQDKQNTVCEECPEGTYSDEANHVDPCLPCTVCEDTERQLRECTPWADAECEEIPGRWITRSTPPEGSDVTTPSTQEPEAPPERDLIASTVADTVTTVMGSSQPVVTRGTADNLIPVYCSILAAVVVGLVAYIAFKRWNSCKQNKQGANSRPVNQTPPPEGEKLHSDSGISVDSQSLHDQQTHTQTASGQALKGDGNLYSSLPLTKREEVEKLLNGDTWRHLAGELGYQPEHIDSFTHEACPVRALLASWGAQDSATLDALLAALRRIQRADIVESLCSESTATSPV
Protocol: (§1) GFP-labeled mouse MSCs were obtained as a kind gift from Dr. William D. Hill (MUSC, Charleston, SC) and used between passages 5-9. MSCs cells were cultured in high glucose DMEM (4.5 g/L D-glucose, Thermo-Fisher Grand Island, NY, USA) supplemented with 10% FBS and 1% penicillin/streptomycin at 37° C. and 5% CO2. Knocking down p75NTR expression was performed according to manufacturer's instructions (Santa Cruz Biotechnology Inc., Dallas, TX, USA). Briefly, MSCs were shifted to antibiotic-free medium over night when 60-80% confluent. Cells were transfected with Si-RNA against p75NTR receptor (sc-37268) or scrambled (sc-37007) with the aid of lipofectamine transfection reagent (sc-29528) for 6 h. DMEM medium containing 2× of FBS and antibiotic was added on top of pure transfection medium for an extra 12 h. Next, transfection medium was removed and cells were allowed to recover in 1×DMEM medium for 6 h. For in vivo studies, cells were collected in sterile PBS (50,000 cells/μL) for intravitreal injection 48 h after I/R. For additional set of experiments, MSCs were treated with the p75NTR modulator (LM11A-31, 200 nM). Confluent MSCs (80% confluent) were treated with LM11A-31 or its vehicle for 12 h. Then, condition media were collected as well as cell lysates using mirVANA™ PARIS™ Kit (Ambion Inc., Austin, TX, USA), according to manufacturer's instructions.

[2] = tested on: HREs; assay: RT-PCR gene expression in HREs treated with CM of p75NTR-modulated MSCs; type: cell-based, human
Protocol: as §1
All human retinal endothelial (HRE) cell studies were in accordance with Association for Research in Vision and Ophthalmology and Charlie Norwood Veterans Affairs Medical Center, research and ethics committee. HREs and supplies were purchased from Cell Systems Corporation (Kirkland, WA, USA) and VEC Technology Inc. (Rensselaer, NY, USA).
Retinas samples and MSCs lysates were processed using (mirVANA™ PARIS™ Kit, Ambion Inc., Austin, TX, USA) and RNA was purified and quantified as described by the manufacturer's instructions. A one-step quantitative RT-PCR kit (Invitrogen, Carlsbad, CA, USA) was used to amplify 10 ng retinal mRNA. Quantitative PCR was conducted using a StepOnePlus qPCR system (Applied BioSystems, Life Technologies, Waltham, MA, USA). For HREs, RNA isolation was performed using the TRIzol Reagent (Invitrogen, Waltham, MA, USA), according to the manufacturer's instructions. RNA concentration was quantified by spectrophotometry at 260 nm using Nanodrop 2000 (Thermo Fisher Scientific, Waltham, MA, USA). A total of 1 μg of RNA was reverse transcribed to prepare cDNA using the RNA to cDNA EcoDry premix (Takara Bio USA Inc., Mountain View, CA, USA). Real-time PCR was performed using the CFX96 PCR instrument with matched primers (See Table 1) and Universal SYBR Green Supermix (Bio-Rad, Hercules, CA, USA). The following PCR parameters were used: initial denaturation cycle at 95° C. for 3 min, followed by 40 amplification cycles at 95° C. for 10 s, 56° C. for 15 s, and 72° C. for 1 min. The results are presented as the fold change in relative gene expression quantified using the delta-delta CT method and normalized to internal controls (18 S, GAPDH) and expressed relative to controls.

[3] = tested on: HREs; assay: Cell migration assay (wounded HREs, CM of treated MSCs); type: cell-based, human; details: 12 h of treatment with CM of modulated MSCs
Protocol: HREs were grown to confluence and then were wound with a single sterile cell scraper of constant diameter. Cells were divided into three groups, treated with regular media without FBS, and 1:1 mixture of FBS-free regular media and CM of vehicle- or treated-MSCs. Images of wounded areas were taken immediately after adding the treatment using a phase contrast microscope, and baseline were marked under the cell culture dish with blue marker. After 12 h, images of same field were taken and % cell migration was calculated. Each condition was verified in triplicate and was repeated using independent cultures.

[4] = tested on: HREs; assay: Tube formation assay (Matrigel); type: cell-based, human; details: 24 h of treatment with CM of modulated MSCs
Protocol: Corning Matrigel Matrix (10 mg protein/mL) Growth Factor Reduced (Corning Inc., Cat. No. 354230, Corning, NY, USA) was used for tube formation assay. Then, 289 μL of cold (4° C.) Matrigel per well was added into chilled 24-well flat-bottom tissue culture plate (USA Scientific Inc., Ocala, FL, USA) and polymerized for 1 h at 37° C., 5% CO2 incubator. HREs were trypsinized and separated into different groups. Each group of cells was centrifuged and cell pellets were resuspended in regular media without FBS, same media with 1:1 mixture of FBS free regular media and CM of vehicle- or treated-MSCs. Then 300 μL of the cell suspension was added onto each well of Matrigel coated 24-well culture plate and incubated at 37° C. After 24-h, cells forming tube structures were analyzed by microscopy. Cells in five replicate fields of triplicate wells were digitally photographed with an EVOS microscope (Thermo Fisher Scientific Inc., Waltham, MA, USA). The images for Tube formation assay were analyzed using Angiogenesis analyzer for imageJ. An area of 1.8 mm2 from each well was analyzed with imageJ ver. 1.53c, and 3 wells were analyzed per group. […] The total tubular length was calculated as the average of the total tubule length from three wells, five random fields per well.

[5] = molecular target: T2, p75^NTR (Mus musculus, UniProt Q9Z0W1); assay: Visual acuity test (cue version of Morris water maze) post retinal I/R; type: in vivo; details: WT mice
T2 construct: Interventional treatment with the p75^NTR modulator LM11A-31 (50 mg/Kg, po, QOD) for 12 weeks; from tissue; host or cells: living STZ-diabetic mice (kidney, urine, blood, body weight)
T2 sequence (Q9Z0W1 32-427): T1 sequence (Q9Z0W1 32-427)
Protocol: For surgeries, mice were anesthetized with intraperitoneal ketamine (50 mg/kg; Hospira, Inc., Lake Forest, IL, USA) and xylazine (10 mg/kg; Akorn, Decatur, IL, USA). Retinal ischemia/reperfusion (I/R) was performed as described previously in Coucha, M. et al. Modulating Expression of Thioredoxin Interacting Protein (TXNIP) Prevents Secondary Damage and Preserves Visual Function in a Mouse Model of Ischemia/Reperfusion. Int. J. Mol. Sci. 2019, 20. Briefly, pupils were dilated with 1% Atropine Sulfate (Akorn, Inc., Lake Forest, IL, USA). The anterior chamber was cannulated with a 32 gauge needle attached to a line from a saline reservoir at a height calibrated to yield 120 mmHg. The intraocular pressure (IOP) was elevated to 120 mmHg for 45-60 min. I/R injury and choroidal nonperfusion was evident by whitening of the anterior segment of the globe and blanching of the episcleral veins. During infusion, topical anesthesia (0.5% tetracaine HCL, Bausch & Lomb, NJ, USA) was applied to the cornea. After ischemia, the needle was immediately withdrawn, allowing for rapid reperfusion, IOP was normalized, and reflow of the retinal vasculature was confirmed by observation of the episcleral veins. […]
Visual acuity was assessed behaviorally by training and testing mice on the “cue” version of the Morris water maze task. […]

[6] = molecular target: T2, p75^NTR; assay: Interventional treatment of STZ-diabetic mice (16-weeks diabetes): kidney and systemic readouts; type: in vivo; details: 50 mg/Kg, po, QOD, 12 weeks
[7] = tested on: p75NTR; details: cultures of p75NTR−/− neurons; cited from earlier work
[8] = cited from earlier work
[9] = cited from earlier work; remark: listed apart in the source
[10] = normal young and elderly individuals; cited from earlier work
[11] = HREs treated with CM of modulated MSCs vs controls
[12] = HREs treated with CM of modulated MSCs, fold change, delta-delta CT, relative to controls

NGF in MSCs conditioned medium, increase [1]: ~4 Fold | SDF-1α in MSCs conditioned medium, increase [1]: ~14.9 Fold | VEGF-A in MSCs conditioned medium, increase [1]: 1.6 Fold | area under the curve (AUC) of time to platform after 15 days ([5]; I/R, 50 mg/kg/day oral gavage every other day): normalized | UAER normalized to creatinine ([6]; control animals): did not alter baseline | blood glucose level ([6]; control or diabetic animals): did not alter | renal fibrotic markers (Fibronectin, alpha-SMA) ([6]; controls): did not alter base-line | glomeruli size (Trichome staining) ([6]; diabetic animals): preserved glomeruli size | kidney NGF levels, Western Blot ([6]; diabetic animals): restored | renal and urinary inflammation (kidney IL-6 and IL-1β mRNA, urine IL-1β by ELISA) ([6]; diabetic animals): significantly prevented the increase | renal fibrosis (Trichome staining) ([6]; diabetic animals): significantly improved fibrosis | p75^NTR expression in kidney sections (immunohistochemistry) ([6]; diabetic or control animals): did not alter
SMILES: CCC(C)C(N)C(=O)NCCN1CCOCC1 (stereo not shown) [LM11A-31, 2-amino-3-methyl-pentanoic acid [2-morpholin-4-yl-ethyl]-amide]
Akt gene expression in HREs, increase [2, 11]: ~2.7 Fold | Bax gene expression in HREs, increase [2, 11]: ~1.9 Fold | Bcl-2 gene expression in HREs, increase [2, 11]: ~2.5 Fold | VEGF-A gene expression in HREs, increase [2, 11]: ~3.5 Fold | p53 gene expression in HREs, change [2, 11]: no change | p53 relative gene expression in HREs (mean±SEM) ([2]; HREs treated with CM of modulated MSCs, first value of the printed pair): 3.7±3.4 | Akt relative gene expression in HREs (mean±SEM) [2, 12]: 2.68±0.53 | Bax relative gene expression in HREs (mean±SEM) [2, 12]: 1.88±0.105 | Bcl-2 relative gene expression in HREs (mean±SEM) [2, 12]: 2.45±0.24 | VEGF-A relative gene expression in HREs (mean±SEM) [2, 12]: 3.58±0.58 | HREs migration, increase [3]: 1.34 Fold | number of junction points, increase [4]: 1.5 Fold | tube length, increase [4]: 1.4 Fold | time to reach the platform (visual-clue water maze) ([5]; I/R both eyes, 50 mg/kg/day oral gavage every other day from 48 h post I/R, 6, 9, 12, 15 days post I/R, 50 mg/kg/day): significantly ameliorated; also recorded: attenuated | Urinary albumin excretion rate (UAER) normalized to creatinine ([6]; diabetic animals): significantly improved; also recorded: increase | body weight ([6]; diabetic animals): preserved the weight | glomeruli areas (PAS staining) ([6]; diabetic animals): significantly preserved glomeruli areas back to normal glomeruli size | kidney TNF-α expression (inflammatory marker), Western Blot ([6]; diabetic animals): significantly prevented the increase; also recorded: significantly improved | kidney p-JNK (apoptotic marker), Western Blot ([6]; diabetic animals): significantly prevented the increase; also recorded: significantly improved | ratio of kidney weight to body weight ([6]; diabetic animals): significantly improved | renal TGF-beta expression ([6]; diabetic animals): significantly prevented the increase; also recorded: significantly improved | renal fibrotic markers (Fibronectin, alpha-SMA), Western Blot ([6]; diabetic animals): significantly prevented the increase; also recorded: significantly improved | ratio of kidney weight to body weight ([6]; treated controls): did not alter the baseline | specificity to p75NTR: protective activity [7]: complete loss of its protective activity | blood-brain barrier crossing ([8]; 50 mg/kg, oral administration): cross the blood-brain barrier | oral bioavailability ([8]; in vivo, po): orally bioavailable | water solubility [9]: water-soluble | phase I safety trial outcome [10]: successfully completed
